Results taken from paper PMC7094215, “Synthesis and Evaluation of Antileishmanial and Cytotoxic Activity of Benzothiopyrane Derivatives” (Molecules, 2020).
Where two headings read alike, the source gives them in different places.

Columns and labels:
[1] = test system: human monocytes (U-937 ATCC CRL-1593.2); assay: Cytotoxic activity, MTT method; assay type: cell-based; settings: 72 h
Method: (§1) Cytotoxicity of the compounds was evaluated on human monocytes (U-937 ATCC CRL-1593.2) in an exponential growth phase and adjusted at 1 × 10^5 cells/mL in RPMI-1640 enriched with 10% fetal bovine serum (FBS). One hundred microliters of cell suspension were dispensed in each well of a 96-wells microplate, and then 100 μL of 200-50-12.5 and 3.125 μg/mL concentration of each compound or standard drug (amphotericin B) were added dissolved in PBS with 0.5% DMSO. Cell exposed to compounds or standard drugs were incubated 72 h at 37 °C and 5% of CO2. Cytotoxic activity of each compound was determined according to the effect on the cell viability by the MTT microenzymatic method in which 3-(4,5-dimethylthiazol-2-yl)-2,5-diphenyltetrazolium bromide is reduced to a purple formazan product by mitochondrial enzyme succinate dehydrogenase. Thus, 10 μL/well of MTT solution (5 mg/mL) was added to each well of exposed and unexposed cells, and plates were incubated at 37 °C, 5% CO2 during 3 h. The reaction was stopped by adding 100 μL/well of isopropanol with 50% and 10% of SDS (sodium dodecyl sulfate). The concentration of formazan was determined spectrophotometrically at 570 nm (Varioskan, Thermo, Waltham, MA, USA) and intensity of color (absorbance) was registered as O.D. Cells exposed to control drug (amphotericin B) were used as control for toxicity (positive control) while cell incubated in the absence of any compound or drug were used as control for viability (negative control). Non-specific absorbance was corrected by subtracting absorbance (O.D) of the blank. Determinations were done by triplicate in at least two independent experiments.
(§2) Cytotoxicity was determined according to viability and mortality percentages obtained for each experimental condition (synthesized compounds, amphotericin B, and culture medium). Results were expressed as the mean lethal concentrations (LC50), the concentration necessary to kill 50% of cells, calculated by the parametric method of linear regression that permits doses-response analysis (Probit analysis).
(§3) Initially, viability percentages were calculated by Equation (1), where the O.D of control well, corresponds to 100% of viability:(1) % Viability=(O.D. exposed cells/O.D. unexposed cells)×100
(§4) Then, the percentage of cell growth inhibition was calculated using Equation (2):(2) % Inhibition =100−(% Viability)
(§5) The toxicity was defined according to LC50 values, using the follow scale: Toxic; LC50 < 100 μM; moderately toxic; LC50 > 100 μM and < 200 μM and potentially nontoxic; LC50 > 200 μM.

[2] = test system: intracellular amastigotes of L. panamensis (MHOM/CO/87/UA140-EGFP strain); assay: In vitro antileishmanial activity on intracellular amastigotes (GFP, flow cytometry); assay type: cell-based, Leishmania (V) panamensis; settings: for EC50: intracellular amastigotes in U-937 cells, 72 h exposure, mean ± SD, Probit; for SI (Selectivity Index = LC50/EC50): LC50 U-937 / EC50 L. panamensis amastigotes
Method: Antileishmanial activity of compounds was determined according to the ability of the compound to reduce the infection by L. panamensis parasites. For this, the antileishmanial activity was tested on intracellular amastigotes of L. panamensis transfected with the green fluorescent protein gene (MHOM/CO/87/UA140-EGFP strain). Briefly, U-937 human cells at a density of 3 × 10^5 cells/mL in RPMI 1640 and 0.1 μg/mL of PMA (phorbol-12-myristate-13-acetate) were dispensed on 24-wells microplate and then infected with stationary phase growing L. panamensis promastigotes in 15:1 parasites per cell ratio. Plates were incubated at 34 °C and 5% CO2 for 3 h, and then cells were washed twice with phosphate buffer solution (PBS) to eliminate not internalized parasites. Fresh RPMI-1640 was added into each well (1 mL), and plates were incubated again. After 24 h of infection, the RPMI-1640 medium was replaced by fresh culture medium containing each compound at four serial dilutions (50, 12.5, 3.125 and 0.78 μg/mL) and plates were then incubated at 37 °C and 5% CO2 during 72 h, then, cells were removed from the bottom plate with 100 µL of EDTA/trypsin (250 mg) solution. The cells were centrifuged at 1100 rpm during 10 min at 4 °C, the supernatant was discarded, and cells were washed with 1 mL of cold PBS and centrifuged at 1100 rpm for 10 min at 4 °C. Cells were washed two times employing PBS, as previously, and after the last wash, the supernatant was discarded, and cells were suspended in 500 μL of PBS.
Cells were analyzed by flow cytometry employing a flow cytometer (FC 500MPL, Cytomics, Beckman Coulter. Pasadena, CA, USA) reading at 488 nm (exciting) and 525 nm (emitting) over an argon laser and counting 10,000 events. Infected cells were determined according to the events for green fluorescence (parasites). All determinations for each compound and standard drug were carried out by triplicate, in two experiments. Infected cells exposed to control drug (amphotericin B) were used as the control for antileishmanial activity (positive control), while infected cells incubated in the absence of any compound or drug were used as another control for infection (negative control). Nonspecific fluorescence was corrected by subtracting the fluorescence of unstained cells. Determinations were done by triplicate in at least two independent experiments.
The antileishmanial activity was determined according to the reduction of the percentage of fluorescent parasites determined according to the median fluorescence intensity (MFI) obtained for each experimental condition by cytometry. The parasite values for each concentration of compound were calculated by Equation (3), where the % of parasites in control well, corresponds to 100% of parasites:(3) % Parasites=(MFI exposed parasites/MFI unexposed parasites)×100
Then, the inhibition percentage was calculated with Equation (4):(4) % Inhibitors of Parasites=100−(% Parasites)
Results of antileishmanial activities were expressed as the median effective concentrations (EC50) measured by Probit method.

[3] = Cytotoxic activity, MTT method; assay type: cell-based; settings: human, LC50
Method: as §1, §2, §3, §4, §5

[4] = Leishmania panamensis, U-937, 72 h

Molecule: 4-(2-Carbamoylhydrazineylidene)thiochromane-2-carboxylic acid [Compound 26c]
- CC50 ([1]; U-937 cells, MTT, mean ± SD, Probit, read-out: LC50 (the source's name)): 1160 ± 340 µM
- EC50 [2]: > 189 µM

Molecule: O=C1CC(C(=O)O)Sc2ccccc21 (stereo not drawn) [20a (-), 4-oxo-thiochroman-2-carboxylic acid]
- CC50 ([1]; human): 33 ± 1.5 µM
- SI (Selectivity Index = LC50/EC50) [2]: 0.6
- EC50 [2]: 53.5 ± 10.8 µM

Molecule: CCCCOC(=O)C1CC(=O)c2ccccc2S1 (stereo not drawn) [22b (+), butyl 4-oxothiochromane-2-carboxylates]
- CC50 ([1]; human): 74.9 ± 52.8 µM
- SI (Selectivity Index = LC50/EC50) [2]: 0.2
- EC50 [2]: 368 ± 24.2 µM

Molecule: CCCCOC(=O)C1CC(=O)c2ccccc2S1 (stereo not drawn) [22b (-), butyl 4-oxothiochromane-2-carboxylates]
- CC50 ([1]; human): 28.8 ± 4.5 µM
- SI (Selectivity Index = LC50/EC50) [2]: 0.5
- EC50 [2]: 53 ± 10.8 µM

Molecule: Cc1ccccc1NC(=O)C1CC(=O)c2ccccc2S1 (centres unmarked) [Compound 24c, 4-Oxo-N-(o-tolyl)thiochromane-2-carboxamide]
- CC50 at 72 h [3]: 119 ± 10.9 µM
- SI (Selectivity Index = LC50/EC50) [2]: < 1.2
- EC50 [2, 4]: > 101 µM

Molecule: CCOC(=O)C1CC(=NNC(=O)c2ccccc2)c2ccccc2S1 (centres unmarked) [Compound 26a, Ethyl 4-(2-benzoylhydrazineylidene)thiochromane-2-carboxylate]
- CC50 at 72 h [3]: 15.4 ± 0.2 µM
- SI (Selectivity Index = LC50/EC50) [2]: 0.5
- EC50 [2, 4]: 28.5 ± 6.3 µM

Molecule: CCOC(=O)C1CC(=NNC(=O)c2ccncc2)c2ccccc2S1 (centres unmarked) [Compound 26b, Ethyl 4-(2-isonicotinoylhydrazineylidene)thiochromane-2-carboxylate]
- CC50 at 72 h [3]: 15.2 ± 0.2 µM
- SI (Selectivity Index = LC50/EC50) [2]: 0.3
- EC50 [2, 4]: 53.2 ± 41 µM
